Drawing on article PMC10401651, “Characterization of Uranyl (UO2^2+) Ion Binding to Amyloid Beta (Aβ) Peptides: Effects on Aβ Structure and Aggregation” (ACS Chemical Neuroscience, 2023), this text covers Kd for one compound.

Values joined by “and” are separate entries in the source; they are usually repeats but may differ in a detail not shown here. Equal values may be shown once. Read-outs that look alike come from different tables or passages of the source.

The target in the assay is T1, Aβ40 (H6A, H13A, and H14A) triple-mutant, Aβ40 (NoHis) (Homo sapiens, UniProt P05067, H677A/H684A/H685A).
T1 construct: the Aβ40 (H6A, H13A, and H14A) triple-mutant; purchased AlexoTech AB (Umeå, Sweden); host or cells: recombinant
T1 sequence (P05067 672-711 H677A/H684A/H685A): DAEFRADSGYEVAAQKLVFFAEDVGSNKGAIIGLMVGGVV
In words: Binding affinity via Tyr10 fluorescence quenching, Aβ40 (NoHis) mutant. The following applies: 20 μM Aβ40 (NoHis). The source says: Synthetic lyophilized wt Aβ (1–42) peptides, abbreviated as Aβ42, with the primary sequence DAEFR5HDSGY10EVHHQ15KLVFF20AEDVG25SNKGA30IIGLM35VGGVV40IA, were purchased from JPT Peptide Technologies (Germany). Two recombinant Aβ variants were purchased as lyophilized powder from AlexoTech AB (Umeå, Sweden), namely, the Aβ40 peptide and the Aβ40 (H6A, H13A, and H14A) triple-mutant, which in the following is referred to as the Aβ40 (NoHis) mutant. The Aβ40 peptide was also purchased uniformly single-labeled with ^15N isotopes. All Aβ40 peptide variants were stored at −80 °C until use. Before measurements, they were dissolved in 10 mM NaOH and then sonicated in an ice bath for 5 min to avoid pre-formed aggregates. The samples were then diluted in either sodium phosphate buffer at pH 7.3 or in MES buffer at pH 7.3 or 5.1. The peptide concentrations were initially estimated from the weight of the dry powder and then more accurately determined with a NanoDrop spectrophotometer.
Fluorescence measurements were conducted on a Jobin Yvon Horiba Fluorolog 3 fluorescence spectrophotometer (Longjumeau, France) using a quartz cuvette with a 4 mm path length. The fluorescence emission intensity of samples containing 20 μM Aβ peptides in 20 mM MES buffer, at either pH 7.3 or pH 5.5 and without or with 50 mM SDS detergent present, was measured at 305 nm (excitation wavelength 276 nm) at 20 °C. […] Apparent dissociation constants (KD^App) were determined by fitting the plots to eq 2 [drawing 2] 2 where I0 is the initial fluorescence intensity with no added UO2^2+ ions, I∞ is the steady-state intensity at the end of the titration, [Ab] is the protein concentration, and [U] is the concentration of added UO2^2+ ions.[121],[160]

As to `CC(=O)[O-].CC(=O)[O-].[O]=[U+2]=[O]` [uranyl ions, uranyl acetate], the Kd is 119 µM and 124 µM and 116 µM (pH 7.3 + 50 mM SDS, read-out: KD^App, single replicates); 120 ± 4 µM (pH 7.3 + 50 mM SDS, three replicates, read-out: KD^App, average); 62 µM and 86 µM and 79 µM (pH 7.3, 20 mM MES, read-out: KD^App, single replicates); 76 ± 11 µM (pH 7.3, 20 mM MES, three replicates, read-out: KD^App, average).
